{
  "source": "patent EP4755400A1",
  "about": "“ANTIBODY-DRUG CONJUGATE CONTAINING GLYCOSYLPYRIDINE LINKER” (Novocodex Biopharmaceuticals Co., Ltd., priority 2023, dated 2025)",
  "origin": "cited, not measured here",
  "tested_on": "human carcinoma lines",
  "data": [
    {"smiles": "COc1cccc2c1C(=O)c1c(O)c3c(c(O)c1C2=O)C[C@@](O)(C(=O)CO)C[C@@H]3O[C@H]1C[C@H](N)[C@H](O)[C@H](C)O1", "note": "[doxorubicin]", "values": [
      {"measurement": "IC50", "value": "100 to 200", "unit": "nM"}
    ]}
  ]
}
